Entries after “also recorded” stand apart in the source; their conditions may differ.
Legend:
RAD51 [1] = target: T1, RAD51 (Homo sapiens, UniProt Q06609); assay: DNA binding assay (RAD51-ssDNA complexes); format: biochemical; settings: B02 25 μM, without NaCl challenge
T1 construct: made in house
T1 sequence (Q06609 1-339): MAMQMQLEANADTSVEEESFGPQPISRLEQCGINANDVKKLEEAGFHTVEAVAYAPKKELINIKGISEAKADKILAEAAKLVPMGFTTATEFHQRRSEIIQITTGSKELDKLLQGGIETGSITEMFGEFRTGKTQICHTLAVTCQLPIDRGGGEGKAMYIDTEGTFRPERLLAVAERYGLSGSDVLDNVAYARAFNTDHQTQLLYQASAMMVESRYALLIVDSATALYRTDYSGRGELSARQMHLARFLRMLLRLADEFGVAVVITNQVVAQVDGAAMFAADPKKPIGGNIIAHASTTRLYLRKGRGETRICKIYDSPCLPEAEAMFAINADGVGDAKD
Procedure: DNA binding assay was performed as described (Bugreev et al., 2005, J. Biol. Chem. 280:26886-95). […] After 10 min, reactions was mixed with 0.2 vol of loading buffer and loaded on 10% polyacrylamide gels (135 V, 20 mA) in 0.5×TBE buffer containing 45 mM Tris borate (pH 8.3) and 0.25 mM EDTA. Gels were quantified using a Storm 840 PhosphorImager.

[2] = test system: RAD51 foci in 293 human embryonic kidney (HEK) cells; assay: RAD51 foci formation; format: cell-based
Procedure: 2×10^5 log phase HEK-GFP cells were seeded in 3.5-cm tissue culture plates on glass coverslips pretreated with 0.01% poly-L-lysine (Sigma) and grown overnight. […] Cells were then exposed to 0.5 Gy IR using a Primus Linear Accelerator (Siemens) at […], 3 Gy/min followed by a 2-h incubation at 37° C. Cells were washed with phosphate-buffered saline (PBS) (8.1 mM Na2HPO4, 1.47 mM KH2PO4, 138 mM NaCl and 2.7 mM KCl, pH 7.4), extracted with PBS containing 0.2% Triton X-100 and 1 mM phenylmethanesulfonylfluoride (PMSF) for 5 min at 4° C., and fixed with PBS supplemented with 3.0% formaldehyde and 2.0% sucrose for 10 min. Cells were permeabilized with PBS containing 0.5% Triton X-100 for 5 min and blocked with PBS containing 3% BSA and 0.05% Tween 20 for 30 min at 23° C. Cells were treated with the polyclonal rabbit RAD51 antibodies (1:500 dilution) (a gift from Dr. Golub, Yale University) in PBS containing 3% BSA and 0.05% Triton X-100 overnight at 4° C., and then with Alexa Fluor 488 donkey antirabbit IgG (H+L) antibodies (1:1000 dilution) (Invitrogen) for 1 h at 23° C. followed by a 5-min staining with 500 ng/ml 4′,6-diamidino-2-phenylindole (DAPI) in PBS containing 0.05% Tween 20. Samples were washed in PBS containing 0.05% Tween 20, mounted in VectaShield™ (Vector Laboratories), and sealed with nail polish. The fluorescence images were obtained using an Olympus IX70 inverted microscope and iVision-Mac™ software (BioVision).

I-SceI = assay: Western blotting, I-SceI expression level; format: cell-based; settings: with or without B02
Procedure: Then, both pCBASce-transfected and untransfected cells were trypsinized and resuspended in DMEM supplemented with 10% FBS, 100 units/ml penicillin and 100 μg/ml streptomycin. The suspensions were centrifuged at 1000×g for 5 min at 4° C., the pellets were washed 3 times with cold PBS and then resuspended in lysate buffer containing 50 mM HEPES (pH 7.5), 50 mM NaCl, 5 mM EDTA, 1% Triton X-100, 50 mM NaF, and 10 mM Na4P2O7, 1 mM phenylmethylsulfonyl fluoride (PMSF) and proteinase inhibitor cocktail (Roche Applied Science) for 30 min at 4° C. The cell lysates were centrifuged at 16000×g, for 15 min at 4° C. The supernatants were collected and protein concentrations were determined by the Bradford assay using bovine serum albumin (BSA) as a standard. Equivalent amounts of proteins were loaded on 12% SDS-PAGE gels and after electrophoretic separation were transferred on a PVDF membrane (Osmonics, Inc). […] Immunoblot signals were detected using Enhanced Chemiluminescence (ECL) reagent (Pierce). […]

RAD51 [3] = target: T1, RAD51; assay: Effect on RAD51 oligomerization (gel filtration); settings: B02 200 μM, RAD51 13.5 μM
Procedure: The samples were then centrifuged for 15 min at 16,000×g, 4° C. Supernatants were loaded on a Superose 6 10/300 GL column (GE Healthcare) equilibrated with buffer E and eluted with a flow rate of 0.2 ml/min at 4° C. The gel filtration molecular weight marker kit (29-669 kDa, Sigma) was used for column calibration. The 0.3-ml fractions were collected and analyzed by electrophoresis in a 12% SDS-PAGE gel (100 V, 90 min).

Tp53−/− MEF cells = assay: Clonogenic survival assay, Tp53−/− MEF; format: cell-based, mouse
Procedure: Briefly, MEF cells were trypsinized and the appropriate number of cells was replated on 10 cm tissue culture dishes. […] Cells were fixed and stained using staining solution (0.05% crystal violet, 50% methanol in PBS); colonies were counted using an AlphaImager 3400 (Alpha Innotech Inc.). The percent of survival was determined as described (Hall & Giccia, 2005, “Radiobiology for the Radiologist”, 6th Ed., Philadelphia, Pa.: Lippincott Williams & Wilkins, pp. 30-45). The percent of survival obtained from untreated cells was normalized to 100% survival.

pUC19 supercoiled dsDNA = assay: Ethidium bromide displacement assay; format: binding
Procedure: The fluorescence of the sample was measured using a FlouroMax-3 fluorimeter at an excitation wavelength of 260 nm and an emission wavelength of 546 nm. Then, the small molecule inhibitors were added in increasing concentrations and allowed to equilibrate for 1 min, followed by the fluorescence measurement.

RecA = target: T2, RecA (Escherichia coli, UniProt P0A7G6); assay: Branch migration assay, RecA; format: biochemical, E. coli; settings: B02 10-100 μM
T2 construct: purchased USB Inc. (Cleveland, Ohio)
T2 sequence (P0A7G6 whole entry): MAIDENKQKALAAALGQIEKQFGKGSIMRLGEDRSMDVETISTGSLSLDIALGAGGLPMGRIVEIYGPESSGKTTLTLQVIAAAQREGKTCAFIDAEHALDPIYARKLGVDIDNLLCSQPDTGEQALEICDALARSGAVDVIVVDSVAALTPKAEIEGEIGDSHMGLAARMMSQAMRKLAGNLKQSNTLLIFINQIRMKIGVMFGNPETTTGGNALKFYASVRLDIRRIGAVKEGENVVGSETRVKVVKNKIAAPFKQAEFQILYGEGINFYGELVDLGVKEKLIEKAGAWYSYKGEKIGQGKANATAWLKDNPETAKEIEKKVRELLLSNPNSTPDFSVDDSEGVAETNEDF
Procedure: Branch migration was initiated by addition of ^32P-labeled 5′-joint molecules (0.1 nM, molecules) that were produced by RecA-promoted reaction and was carried out for 30 min. The DNA products were deproteinized and analyzed in 1.5% agarose-TAE gels and quantified using a Storm 840 PhosphorImager (GE Healthcare).

RAD51 [4] = assay: Western blotting, RAD51 expression level; format: cell-based, human; settings: B02 20 μM versus no treatment
Procedure: The pellets were washed three times with cold PBS and then resuspended in lysis buffer containing 50 mM HEPES, pH 7.5, 50 mM NaCl, 5 mM EDTA, 1% Triton X-100, 50 mM NaF, and 10 mM Na4P2O7, 1 mM PMSF, and proteinase inhibitor cocktail (Roche Applied Science) for 30 min at 4° C. The cell lysates were centrifuged at 16,000×g, for 15 min at 4° C., and then the supernatants were collected and protein concentrations were determined using the Bradford assay. Aliquots containing 50 Ξg of total protein were analyzed by 12% SDS-PAGE. […]
Then, both pCBASce-transfected and untransfected cells were trypsinized and resuspended in DMEM supplemented with 10% FBS, 100 units/ml penicillin and 100 μg/ml streptomycin. […] The supernatants were collected and protein concentrations were determined by the Bradford assay using bovine serum albumin (BSA) as a standard. […] Immunoblot signals were detected using Enhanced Chemiluminescence (ECL) reagent (Pierce). […]

## O=c1c2ccccc2nc(/C=C/c2cccnc2)n1Cc1ccccc1 [Compound B02, (E)-3-benzyl-2-(2-(pyridin-3-yl)vinyl)quinazolin-4(3H)-one]
RAD51 [1]
  loss of filaments: 20%
[2]; B02 20 μM
  inhibition of IR-induced RAD51 foci formation, in words: inhibitory effect was smaller
[2]; B02 50 μM
  decrease of average number of RAD51 foci per nucleus: 4.4 fold
  decrease of fraction of cells with RAD51 foci: 3.8 fold
[2]; B02 50 μM, 0.5 Gy IR, without B02 72±10%
  fraction of cells with RAD51 foci (≧1 focus): 19±6%
[2]; B02 50 μM, without B02 53±11
  average number of RAD51 foci per nucleus: 12±4
I-SceI
  expression of I-SceI protein: did not affect
RAD51 [3]
  RAD51 oligomerization: does not affect RAD51 oligomerization
Tp53−/− MEF cells; B02 5 μM
  sensitivity to cisDDP (cisplatin) and MMC: more sensitive; also recorded: increased
Tp53−/− MEF cells; up to 5 μM, Tp53−/− MEF
  cellular viability, B02 alone: No decrease of cellular viability; also recorded: did not have a substantial effect
pUC19 supercoiled dsDNA
  DNA binding, result in words: not to bind DNA
RecA
  inhibition of branch migration activity of RecA: did not inhibit
RAD51 [4]
  expression of RAD51: comparable

From US9750742B2, “Small molecular inhibitors of RAD51 recombinase and methods thereof” (Drexel University, priority 2011, dated 2017)
